Experimental data reported in patent US12296017B2, “Bioorthogonal compositions” (TAMBO, INC., priority 2017, dated 2025).
Converted amounts (≈) assume the structure as drawn. “And” between values parts separate entries of the source, which are not always exact repeats. Identical values can stand only once.

How the values were obtained:
[1] = tested on: methicillin-resistant Staphylococcus Aureus SP231; assay: Rat knee joint MRSA infection study; format: in vivo; settings: rats; TAG (right knee) vs unmodified alginate control gel (left knee); prodrug via tail vein; 24 h; p<0.05
Protocol: Prodrug, TCO-Dapto was delivered systemically via tail vein. Mean±SEM of n=3, unpaired two-tailed Welch's t-test, *p<0.05.
Female Sprague-Dawley rats of age 6-8 weeks were approved for this study by the Institution of Animal Care and Use Committee (IACUC). Neutropenia was induced with cyclophosphamide intraperitoneally, 4 days (150 mg/kg) and 1 day (100 mg/kg) prior to gel injections. Animals received intra-articular injections of […] of 2.5% w/v of Cy5-modified alginate TAG (right knee) or unmodified alginate-Cy5 gel control (left knee) mixed with […] of 10^8 CFU/mL of methicillin-resistant Staphylococcus Aureus SP231 bacteria. After 2 h, animals received 61 μM of transcyclooctene-modified daptomycin-glycine (TCO-Dapto) via tail vein IV at standard dosing volume. After 24 h of gel injections, knee joints were harvested, homogenized and diluted in Dubelco's Phosphate buffered saline (D-PBS). Homogenized mixture was plated onto trypticase soy agar plates containing 5% sheep's blood duplicate. Bacterial colonies were enumerated following 20 h of incubation and bacterial load as LOG CFU/g of knee joint was determined. Statistical analysis was performed with Welch's two-tailed t-test and * denotes p<0.05. Error bars indicate standard error over means of n=3.

[2] = Aqueous solubility of Example 13B under different buffer conditions
MRSA bacteria = assay: In vitro calorimetry (MRSA) in presence and absence of TAG
bacteria = assay: Microcalorimetry activity of Vanco-Bis-TCO-Glycine; format: cell-based; settings: tested up to 64 μg/ml (32 μM), without activating gel
[3] = Phosphate Buffer pH 6.5, final pH 6.1
[4] = Phosphate Buffer pH 7.5, final pH 5.4

SMILES | bacterial loading of harvested knee joint [1] | Solubility, Mean ([2]; Buffer: Water, final pH 3.4) [mg/mL] | Solubility, Value ([2]; Buffer: Water, final pH 3.4) | Solubility, Mean [2, 3] [mg/mL] | Solubility, Value [2, 3] | Solubility, Mean [2, 4] [mg/mL] | Solubility, Value [2, 4] | MHIC in the absence of TAG relative to presence of TAG (MRSA bacteria) [×] | activity against bacteria as measured by microcalorimetry (bacteria)
CCCCCCCCCC(=O)NC(Cc1c[nH]c2ccccc12)C(=O)NC(CC(N)=O)C(=O)NC(CC(=O)O)C(=O)NC1C(=O)NCC(=O)NC(CCCNC(=O)OC2C=CCCC(C)(C(=O)NCC(=O)O)CC2)C(=O)NC(CC(=O)O)C(=O)NC(C)C(=O)NC(CC(=O)O)C(=O)NCC(=O)NC(CO)C(=O)NC(C(C)CC(=O)O)C(=O)NC(CC(=O)c2ccccc2N)C(=O)OC1C (stereo not drawn) [Example 13B, Dapto-TCO-Glycine] | reduces MRSA infection in vivo in a knee joint | 0.15 (≈ 0.0795 mM) | 0.15 mg/mL and 0.14 mg/mL | 10.9 (≈ 5.77 mM) | 10.8 mg/mL and 10.9 mg/mL | 38.3 (≈ 20.3 mM) | 38.1 mg/mL and 38.3 mg/mL |  | 
CC(C)CC(C(=O)N[C@H]1C(=O)N[C@@H](CC(N)=O)C(=O)N[C@H]2C(=O)N[C@H]3C(=O)N[C@H](C(=O)N[C@H](C(=O)O)c4cc(O)cc(O)c4-c4cc3ccc4O)[C@H](O)c3ccc(c(Cl)c3)Oc3cc2cc(c3O[C@@H]2O[C@H](CO)[C@@H](O)[C@H](O)[C@H]2O[C@H]2C[C@](C)(NC(=O)O[C@@H]3/C=C/CC[C@](C)(C(=O)NCC(=O)O)CC3)[C@H](O)[C@H](C)O2)Oc2ccc(cc2Cl)[C@H]1O)N(C)C(=O)O[C@@H]1/C=C/CC[C@](C)(C(=O)NCC(=O)O)CC1 (stereo partly drawn) [Example 13C, Vanco-Bis-TCO-glycine Conjugate] |  |  |  |  |  |  |  | 8 | no activity
